{"source": "paper PMC8536575", "about": "“Acute effects of the imidacloprid metabolite desnitro-imidacloprid on human nACh receptors relevant for neuronal signaling” (Archives of Toxicology, 2021)", "key": {"LUHMES neurons": {"system": "LUHMES neurons", "assay": "Single-cell Ca2+-imaging of LUHMES neurons", "type": "cell-based, human", "conditions": "single-cell time-lapse fluorescence microscopy", "protocol": "For Ca^2+-imaging experiments with a higher resolution on the single-cell level, the Cell Observer (Carl Zeiss Microscopy) was used. The Ca^2+-sensitive dye, the cell handling before the experiment, and the buffer were the same as described above for the experiments with the high-throughput FDSS/µCELL system. The recordings were performed with 2 × 2 binning and a 42 ms exposure time. The compounds were applied after a baseline recording of at least 10 s.\nThe single-cell Ca^2+-imaging recordings were exported and analyzed in Fiji ImageJ (version 1.52i) to get the average fluorescence signal of each cell. These signals were further analyzed in R, where a threshold detection was performed to detect responding cells. For this, the offset was corrected by subtracting the mean of 20–65% of the fluorescence signal of the pre-application period from the recording, to be robust against spontaneous activity. The threshold was defined as mean + 3 * SD of the negative control recordings, during the detection phase of 6.5 s during the application."}, "human α4β4 nAChR": {"target": "T1, human α4β4 nAChR (Homo sapiens, UniProt P30926+P43681)", "T1 construct": "expressed in transfected cells; host or cells: Xenopus laevis oocytes, mRNA injection, 3.33 ng α4 and 3.33 ng β4", "T1 sequence (P43681 27-627)": "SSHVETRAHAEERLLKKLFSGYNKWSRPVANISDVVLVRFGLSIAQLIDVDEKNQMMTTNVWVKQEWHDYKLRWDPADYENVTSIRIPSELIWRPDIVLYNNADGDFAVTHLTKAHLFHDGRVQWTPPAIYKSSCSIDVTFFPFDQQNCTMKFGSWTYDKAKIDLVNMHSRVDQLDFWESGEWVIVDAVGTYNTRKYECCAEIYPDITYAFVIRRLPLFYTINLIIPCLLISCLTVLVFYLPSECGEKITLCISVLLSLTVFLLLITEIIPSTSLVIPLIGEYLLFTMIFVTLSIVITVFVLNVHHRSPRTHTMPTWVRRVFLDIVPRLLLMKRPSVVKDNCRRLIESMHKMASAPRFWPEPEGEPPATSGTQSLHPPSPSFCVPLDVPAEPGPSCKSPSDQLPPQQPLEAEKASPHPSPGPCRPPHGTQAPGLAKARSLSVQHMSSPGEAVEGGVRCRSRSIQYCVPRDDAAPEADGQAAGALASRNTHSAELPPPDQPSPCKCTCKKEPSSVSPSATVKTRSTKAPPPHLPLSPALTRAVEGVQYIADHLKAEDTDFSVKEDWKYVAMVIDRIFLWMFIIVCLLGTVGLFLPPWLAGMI", "T1 sequence (P30926 22-498)": "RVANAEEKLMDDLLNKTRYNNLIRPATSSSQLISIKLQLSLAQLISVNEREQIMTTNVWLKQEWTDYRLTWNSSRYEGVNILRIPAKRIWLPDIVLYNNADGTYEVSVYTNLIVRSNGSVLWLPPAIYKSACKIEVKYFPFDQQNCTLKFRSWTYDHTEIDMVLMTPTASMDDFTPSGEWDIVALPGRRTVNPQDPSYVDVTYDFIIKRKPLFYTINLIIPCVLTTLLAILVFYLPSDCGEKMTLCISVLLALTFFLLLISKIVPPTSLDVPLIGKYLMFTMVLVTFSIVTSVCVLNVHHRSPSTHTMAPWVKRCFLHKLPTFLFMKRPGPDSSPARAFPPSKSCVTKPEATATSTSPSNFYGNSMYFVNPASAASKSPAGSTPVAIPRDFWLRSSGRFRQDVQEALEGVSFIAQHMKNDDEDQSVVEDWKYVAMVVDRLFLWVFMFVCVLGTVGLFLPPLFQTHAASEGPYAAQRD", "assay": "Two-electrode voltage-clamp recordings, Xenopus laevis oocytes expressing human α4β4 nAChR", "type": "cell-based", "from_the_text": "The human α7 nAChR subunit was cloned in the pCDNA3.1 vector.\nFor the generation of the mRNA for injection, the plasmid DNAs of α3, α4, β2, and β4 were linearized with the NotI restriction endonuclease (New England Biolabs) and the plasmid DNA of α7 was linearized with the XbaI restriction endonuclease (New England Biolabs). The mRNAs of α3, α4, β2, and β4 were generated by in vitro transcription using the mMESSAGE mMACHINE SP6 Transcription Kit (Invitrogen). For the generation of α7 mRNA, the mMESSAGE mMACHINE T7 Transcription Kit (Invitrogen) was used. For the separation of the DNA and mRNA, a phenol–chloroform extraction (Chomczynski and Sacchi [2006]) was performed. The mRNA was then obtained by ethanol precipitation from the aqueous phase; for quantification, the BioPhotometer (Eppendorf) was used.\nThe recordings of human α7, α3β4, α4β2, and α4β4 nAChRs expressed in Xenopus laevis oocytes (EcoCyte Bioscience) were performed in two-electrode voltage-clamp mode using the Roboocyte2 system and the corresponding software (version 1.4.1; Multi Channel Systems MCS). Prior to the recordings, the oocytes were maintained at 19 °C in modified Barth’s solution containing [mM]: 88 NaCl, 1 KCl, 0.33 Ca(NO3)2, 0.82 MgSO4, 2.4 NaHCO3, 0.41 CaCl2, 5 Tris, 100 U/ml penicillin, 100 µg/ml streptomycin, pH 7.4.\nTo express human α7 nAChR, we injected 50 nl of mRNA solution (30 ng mRNA) per oocyte, using the Roboinject and the corresponding software (version 1.2.1; Multi Channel Systems MCS). […]\nThe baseline correction of voltage-clamp oocyte recordings was performed with the Roboocyte2 + software (version 1.4.3; Multi Channel Systems MCS, Germany). The maximal current influx and further analysis were executed in scripts written in R. In the antagonist experiments with oocytes, the maximal inward current was determined for the last response of each period (control, three antagonist concentrations, and washout)."}, "[1]": {"system": "Xenopus laevis oocytes without additional receptor expression", "assay": "Control recordings in oocytes without additional receptor expression", "type": "cell-based", "conditions": "DN-IMI 30 µM, injection of water without mRNA, n = 5", "protocol": "First, we focused our experiments on the α4β2 receptor, which can assemble in two different stoichiometries. […] For control purposes, we applied DN-IMI (30 µM) to Xenopus laevis oocytes without additional receptor expression (injection of water without mRNA)."}}, "data": [{"smiles": "NC1=NCCN1Cc1ccc(Cl)nc1", "note": "[DN-IMI, desnitro-imidacloprid]", "values": [{"measurement": "percentage of responsive cells", "setting": "LUHMES neurons", "result": "~ 80%"}, {"measurement": "estimated maximum", "setting": "human α4β4 nAChR; normalized to nicotine (100 µM)", "result": "~ 0.97"}, {"measurement": "EC50", "setting": "human α4β4 nAChR; read-out: relative pEC50 (inward current amplitude) (converted)", "result": 3.16, "unit": "µM"}, {"measurement": "current responses in oocytes without receptor expression", "setting": "[1]", "result": "did not detect any current responses"}]}]}
